Consider 20 compounds from patent US11858951B2, “Boronic acid derivatives” (Merck Patent GmbH, priority 2017, dated 2024).

The target of experiment [1] is LMP7 (purified human immuno proteasome) (Homo sapiens, UniProt P28062). Description: Determination of LMP7 activity (fluorescence intensity assay, Suc-LLVY-AMC). To be noted: for Selectivity LMP7 vs Beta5: LMP7 versus Beta5, incubation for 20 minutes. Format: biochemical. The protocol: Biological Activity Determination of LMP7 Activity:
Measurement of LMP7 inhibition is performed in 384 well format based on fluorescence intensity assay.
(§1) Purified human immuno proteasome (0.25 nM) and serial diluted compounds in DMSO (range of concentrations from 30 μM to 15 pM) or controls are incubated for 20 minutes or 120 minutes (long incubation) at 25° C. in assay buffer containing 50 mM Tris pH 7.4, 0.03% SDS, 1 mM EDTA and 1% DMSO. The reaction is initiated by the addition of the fluorogenic peptide substrate, Suc-LLVY-AMC (Bachem 1-1395), at a concentration of 40 μM. After 60 minutes of incubation at 37° C., fluorescence intensity is measured at λex=350 nm and λem=450 nm with a fluorescence reader (Perkin Elmer Envision reader or equivalent).
(§2) Unless indicated otherwise the results are obtained after incubation for 20 minutes.

Experiment [2] deals with Beta5 (purified human constitutive proteasome) (Homo sapiens, UniProt P28074). Description: Determination of Beta5 activity (fluorescence intensity assay, Suc-LLVY-AMC). The class given is biochemical. The protocol:
Determination of Beta5 Activity:
Measurement of Beta5 inhibition is performed in 384 well format based on fluorescence intensity assay.
as §1, with “constitutive” for “immuno”, “(1.25” for “(0.25”
as §2

The mark [3] stands for this setting: incubation for 20 minutes at 25° C., concentrations 30 μM to 15 pM, read-out: LMP7 IC50.
Where [4] appears, read: incubation for 20 minutes at 25° C., concentrations 30 μM to 15 pM, read-out: Beta5 IC50.

Where two headings read alike, the source gives them in different places. Some results are limits rather than exact numbers.

A word on the IC50: it is the midpoint of a concentration-inhibition curve. As to `O=C(N[C@@H](C[C@@H]1COc2ccccc21)B(O)O)[C@@H]1C[C@H]2CC[C@@H]1O2` [Compound No. 1, [(1R)-2-[(3S)-2,3-dihydro-1-benzofuran-3-yl]-1-{[(1S,2R,4R)-7-oxabicyclo[2.2.1]heptan-2-yl]formamido}ethyl]boronic acid], in experiment [1], the “Selectivity LMP7 vs Beta5” value is reported as “+++++ (Selectivity ≥700)”. The 50% inhibitory concentration (IC50) in experiment [1] (setting [3]) was under 5e-08 M; in experiment [2] (setting [4]) it was 5e-06 to 3e-05 M.
For `O=C(N[C@@H](Cc1coc2ccccc12)B(O)O)[C@@H]1C[C@H]2CC[C@@H]1O2` [Compound No. 9, [(1R)-2-(1-benzofuran-3-yl)-1-{[(1S,2R,4R)-7-oxabicyclo[2.2.1]heptan-2-yl]formamido}ethyl]boronic acid], in that order: “+++++ (Selectivity ≥700)”, under 5e-08 M and 5e-07 to 5e-06 M.
For `O=C(N[C@@H](Cc1coc2c(Cl)cccc12)B(O)O)[C@@H]1C[C@H]2CC[C@@H]1O2` [Compound No. 13, [(1R)-2-(7-chloro-1-benzofuran-3-yl)-1-{[(1S,2R,4R)-7-oxabicyclo[2.2.1]heptan-2-yl]formamido}ethyl]boronic acid], in that order: “+++++ (Selectivity ≥700)”, under 5e-08 M and 5e-07 to 5e-06 M.
With `O=C(N[C@@H](C[C@@H]1COc2ccccc21)B(O)O)[C@H]1C[C@@H]2CC[C@H]1O2` [compound 2, [(1R)-2-[(3S)-2,3-dihydro-1-benzofuran-3-yl]-1-{[(1R,2S,4S)-7-oxabicyclo[2.2.1]heptan-2-yl]formamido}ethyl]boronic acid], the “Selectivity LMP7 vs Beta5” value in experiment [1] was “+++ (300 ≤ Selectivity < 500)”. Moreover, the IC50 in experiment [1] (setting [3]) lay in the range of 5e-08 to 5e-07 M; in experiment [2] (setting [4]), 5e-06 to 3e-05 M.
`O=C(N[C@@H](Cc1ccsc1)B(O)O)[C@@H]1C[C@H]2CC[C@@H]1O2` [compound 3, [(1R)-1-{[(1S,2R,4R)-7-oxabicyclo[2.2.1]heptan-2-yl]formamido}-2-(thiophen-3-yl)ethyl]boronic acid]: the IC50 in experiment [1] (setting [3]) is 5e-07 to 5e-06 M; in experiment [2] (setting [4]), over 3e-05 M.
Take `O=C(N[C@@H](Cc1coc2ccccc12)B(O)O)[C@H]1C[C@@H]2CC[C@H]1O2` [compound 8, [(1R)-2-(1-benzofuran-3-yl)-1-{[(1R,2S,4S)-7-oxabicyclo[2.2.1]heptan-2-yl]formamido}ethyl]boronic acid]: the “Selectivity LMP7 vs Beta5” value in experiment [1] is “++++ (500 ≤ Selectivity < 700)”. In addition, the values for the IC50 in experiment [1] (setting [3]) and in experiment [2] (setting [4]) were under 5e-08 M and 5e-06 to 3e-05 M, respectively.
The corresponding values for `O=C(N[C@@H](Cc1coc2c(Cl)cccc12)B(O)O)[C@H]1C[C@@H]2CC[C@H]1O2` [compound 12, [(1R)-2-(7-chloro-1-benzofuran-3-yl)-1-{[(1R,2S,4S)-7-oxabicyclo[2.2.1]heptan-2-yl]formamido}ethyl]boronic acid] are “+++++ (Selectivity ≥700)”, under 5e-08 M and 5e-06 to 3e-05 M.
Consider `Cc1cccc2c1OC[C@@H]2C[C@H](NC(=O)[C@@H]1C[C@H]2CC[C@@H]1O2)B(O)O` [compound 14, [(1R)-2-[(3R)-7-methyl-2,3-dihydro-1-benzofuran-3-yl]-1-{[(1S,2R,4R)-7-oxabicyclo[2.2.1]heptan-2-yl]formamido}ethyl]boronic acid], for which the half-inhibitory concentration (IC50) is 5e-07 to 5e-06 M in experiment [1] (setting [3]) and over 3e-05 M in experiment [2] (setting [4]).
As to `Cc1cccc2c1OC[C@H]2C[C@H](NC(=O)[C@@H]1C[C@H]2CC[C@@H]1O2)B(O)O` [compound 15, [(1R)-2-[(3S)-7-methyl-2,3-dihydro-1-benzofuran-3-yl]-1-{[(1S,2R,4R)-7-oxabicyclo[2.2.1]heptan-2-yl]formamido}ethyl]boronic acid], the “Selectivity LMP7 vs Beta5” value in experiment [1] is listed as “+++++ (Selectivity ≥700)”. For the same compound, the IC50 in experiment [1] (setting [3]) is under 5e-08 M; in experiment [2] (setting [4]), 5e-06 to 3e-05 M.
As to `O=C(N[C@@H](C[C@@H]1COc2ccccc21)B(O)O)[C@]12CC[C@H](O1)c1ccccc12` [compound 16, [(1R)-2-[(3S)-2,3-dihydro-1-benzofuran-3-yl]-1-{[(1R,8S)-11-oxatricyclo[6.2.1.0^2,7]undeca-2(7),3,5-trien-1-yl]formamido}ethyl]boronic acid], the “Selectivity LMP7 vs Beta5” value in experiment [1] is on record as “+++++ (Selectivity ≥700)”. Besides, the half-maximal inhibitory concentration (IC50) in experiment [1] (setting [3]) was under 5e-08 M; in experiment [2] (setting [4]), 5e-06 to 3e-05 M.
Consider `O=C(N[C@@H](Cc1coc2ccccc12)B(O)O)[C@H]1C2C(=O)N(C3CC3)C[C@]23C=C[C@H]1O3` (stereo partly drawn) [compound 17, [(1R)-2-(1-benzofuran-3-yl)-1-{[(1S,6S,7R)-3-cyclopropyl-4-oxo-10-oxa-3-azatricyclo[5.2.1.0^1,5]dec-8-en-6-yl]formamido}ethyl]boronic acid], for which the “Selectivity LMP7 vs Beta5” value in experiment [1] is given as “++ (100 ≤ Selectivity < 300)”. In addition, the figures for the IC50 in experiment [1] (setting [3]) and in experiment [2] (setting [4]) were under 5e-08 M and 5e-06 to 3e-05 M, respectively.
Regarding `O=C(N[C@@H](C[C@@H]1COc2ccccc21)B(O)O)[C@@]12CC[C@@H](O1)c1ccccc12` [compound 18, [(1R)-2-[(3S)-2,3-dihydro-1-benzofuran-3-yl]-1-{[(1S,8R)-11-oxatricyclo[6.2.1.0^2,7]undeca-2(7),3,5-trien-1-yl]formamido}ethyl]boronic acid], the “Selectivity LMP7 vs Beta5” value in experiment [1] is on record as “+++++ (Selectivity ≥700)”. In addition, the IC50 in experiment [1] (setting [3]) was under 5e-08 M; in experiment [2] (setting [4]), 5e-06 to 3e-05 M.
For `Cc1cccc2c(C[C@H](NC(=O)[C@]34CC[C@H](O3)c3ccccc34)B(O)O)coc12` [compound 19, [(1R)-2-(7-methyl-1-benzofuran-3-yl)-1-{[(1R,8S)-11-oxatricyclo[6.2.1.0^2,7]undeca-2,4,6-trien-1-yl]formamido}ethyl]boronic acid], in that order: “+++++ (Selectivity ≥700)”, under 5e-08 M and 5e-06 to 3e-05 M.
As to `Cc1cccc2c(C[C@H](NC(=O)[C@@]34CC[C@@H](O3)c3ccccc34)B(O)O)coc12` [compound 20, [(1R)-2-(7-methyl-1-benzofuran-3-yl)-1-{[(1S,8R)-11-oxatricyclo[6.2.1.0^2,7]undeca-2,4,6-trien-1-yl]formamido}ethyl]boronic acid], in experiment [1], the “Selectivity LMP7 vs Beta5” value is “++++ (500 ≤ Selectivity < 700)”. The IC50 in experiment [1] (setting [3]) was under 5e-08 M; in experiment [2] (setting [4]), 5e-06 to 3e-05 M.
Regarding `C[C@]12CC[C@](C(=O)N[C@@H](C[C@@H]3COc4ccccc43)B(O)O)(O1)c1ccccc12` [compound 21, [(1R)-2-[(3S)-2,3-dihydro-1-benzofuran-3-yl]-1-{[(1S,8R)-8-methyl-11-oxatricyclo[6.2.1.0^2,7]undeca-2,4,6-trien-1-yl]formamido}ethyl]boronic acid], in experiment [1], the “Selectivity LMP7 vs Beta5” value is given as “+++++ (Selectivity ≥700)”. For the same compound, the IC50 in experiment [1] (setting [3]) was under 5e-08 M; in experiment [2] (setting [4]) it was 5e-06 to 3e-05 M.
For the compound `O=C(N[C@@H](Cc1coc2ccccc12)B(O)O)C1C[C@H]2O[C@@H]1c1ccccc12` (stereo partly drawn) [compound 22, [(1R)-2-(1-benzofuran-3-yl)-1-{[(1R,8S)-11-oxatricyclo[6.2.1.0^2,7]undeca-2(7),3,5-trien-9-yl]formamido}ethyl]boronic acid], in experiment [1], the “Selectivity LMP7 vs Beta5” value is “++ (100 ≤ Selectivity < 300)”. For the same compound, the IC50 in experiment [1] (setting [3]) is under 5e-08 M; in experiment [2] (setting [4]), 5e-06 to 3e-05 M.
The corresponding values for `C[C@@]12CC[C@@](C(=O)N[C@@H](C[C@@H]3COc4ccccc43)B(O)O)(O1)c1ccccc12` [compound 23, [(1R)-2-[(3S)-2,3-dihydro-1-benzofuran-3-yl]-1-{[(1R,8S)-8-methyl-11-oxatricyclo[6.2.1.0^2,7]undeca-2,4,6-trien-1-yl]formamido}ethyl]boronic acid] are “+++++ (Selectivity ≥700)”, under 5e-08 M and 5e-06 to 3e-05 M.
As for `O=C(N[C@@H](Cc1coc2ccccc12)B(O)O)C1C[C@@H]2O[C@H]1c1ccccc12` (stereo partly drawn) [compound 24, [(1R)-2-(1-benzofuran-3-yl)-1-{[(1S,8R)-11-oxatricyclo[6.2.1.0^2,7]undeca-2(7),3,5-trien-9-yl]formamido}ethyl]boronic acid], the “Selectivity LMP7 vs Beta5” value in experiment [1] is reported as “+ (Selectivity <100)”. The figures for the IC50 in experiment [1] (setting [3]) and in experiment [2] (setting [4]) were under 5e-08 M and 5e-08 to 5e-07 M, respectively.
In the case of `Cc1ccc(C[C@H](NC(=O)[C@@H]2C[C@H]3CC[C@@H]2O3)B(O)O)c(C)c1` [compound 25, [(1R)-2-(2,4-dimethylphenyl)-1-{[(1S,2R,4R)-7-oxabicyclo[2.2.1]heptan-2-yl]formamido}ethyl]boronic acid], the “Selectivity LMP7 vs Beta5” value in experiment [1] is on record as “++ (100 ≤ Selectivity < 300)”. The IC50 in experiment [1] (setting [3]) lay within 5e-08 to 5e-07 M; in experiment [2] (setting [4]), 5e-06 to 3e-05 M.
As for `O=C(N[C@@H](CC1CCCCC1)B(O)O)[C@@H]1C[C@H]2CC[C@@H]1O2` [compound 26, [(1R)-2-cyclohexyl-1-{[(1S,2R,4R)-7-oxabicyclo[2.2.1]heptan-2-yl]formamido}ethyl]boronic acid], the IC50 in experiment [1] (long incubation: 120 min at 25° C., read-out: LMP7 IC50 (M) (long)) is 5e-07 to 5e-06 M; in experiment [2] (long incubation: 120 min at 25° C., read-out: Beta5 IC50 (M) (long)), over 3e-05 M.
